Assay results: US11535630B2, “Apelin receptor (APJ) agonists and uses thereof” (Research Triangle Institute, priority 2015, dated 2022)

Target: T1, apelin receptor (APJ) (Homo sapiens, UniProt P35414)
T1 sequence (P35414 1-380): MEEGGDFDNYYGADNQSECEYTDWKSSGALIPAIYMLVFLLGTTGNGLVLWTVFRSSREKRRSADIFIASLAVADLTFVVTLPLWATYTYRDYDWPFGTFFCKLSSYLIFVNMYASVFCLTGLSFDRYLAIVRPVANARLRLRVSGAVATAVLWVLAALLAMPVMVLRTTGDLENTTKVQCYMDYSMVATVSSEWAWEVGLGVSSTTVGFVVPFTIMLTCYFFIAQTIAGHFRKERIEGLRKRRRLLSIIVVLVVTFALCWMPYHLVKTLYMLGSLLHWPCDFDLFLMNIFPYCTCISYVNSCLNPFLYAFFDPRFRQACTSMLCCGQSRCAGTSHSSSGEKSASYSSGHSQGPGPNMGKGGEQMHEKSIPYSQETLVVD
Assay: In vitro apelin agonist activity (methods of Giddings et al., Apelin-13 as positive control)
Type: cell-based
Conditions: in vitro apelin agonist activity, methods of Giddings et al., Apelin-13 as positive control; read-out: EC50 (nM) Ave
Excerpt: Characterization of the Apelin Agonist Activity of the Compounds
1:39-47, the contents of which are hereby incorporated by reference in its entirety. Using the methods described in Giddings et al. and Apelin-13 as a positive control.

Structure (SMILES) | EC50 [nM]
CC(C)CN(C)CC[C@@H](CC(=O)NC1CCC1)NC(=O)c1cc(-c2ccccc2C(F)(F)F)n(C2CCCC2)n1 [compound 493, (3S)-N-cyclobutyl-3-({1-cyclopentyl-5-[2-(trifluoromethyl)phenyl]-1H-pyrazol-3-yl}formamido)-5-[methyl(2-methylpropyl)amino]pentanamide] | 24
COc1cccc(OC)c1-c1cc(C(=O)N[C@@H](CCc2ccccc2)CC(N)=O)nn1C1CCCC1 [compound 392, (3S)-3-{[1-cyclopentyl-5-(2,6-dimethoxyphenyl)-1H-pyrazol-3-yl]formamido}-5-phenylpentanamide] | > 10000
O=C(C[C@H](CCc1ccc(F)cc1)NC(=O)c1cc(-c2ccccc2C(F)(F)F)n(C2CCCC2)n1)NN1CCCC1 [compound 510, (3S)-3-({1-cyclopentyl-5-[2-(trifluoromethyl)phenyl]-1H-pyrazol-3-yl}formamido)-5-(4-fluorophenyl)-N-(pyrrolidin-1-yl)pentanamide] | 2190
COCCN(C)C(=O)[C@H](CCc1ccccc1)NC(=O)c1nc(-c2ncccc2C(F)(F)F)n(C2CCCC2)n1 [compound 564] | 982
COCCN(C)C(=O)[C@H](COc1ccccc1)NC(=O)c1cc(-c2ccccc2C(F)(F)F)n(C2CCCC2)n1 [compound 570, (2S)-2-({1-cyclopentyl-5-[2-(trifluoromethyl)phenyl]-1H-pyrazol-3-yl}formamido)-N-(2-methoxyethyl)-N-methyl-3-phenoxypropanamide] | 4250
COc1cccc(OC)c1-c1cc(C(=O)N[C@@H](CCN2CCN(C)CC2)CC(=O)OC(C)(C)C)nn1C1CCCC1 [compound 304, tert-butyl (3S)-3-{[1-cyclopentyl-5-(2,6-dimethoxyphenyl)-1H-pyrazol-3-yl]formamido}-5-(4-methylpiperazin-1-yl)pentanoate] | > 10000
COc1cccc(OC)c1-c1cc(C(=O)N[C@H](CC(=O)O)Cc2ccccc2)nn1CC(C)C [compound 297, (3S)-3-{[5-(2,6-dimethoxyphenyl)-1-(2-methylpropyl)-1H-pyrazol-3-yl]formamido}-4-phenylbutanoic acid] | > 10000
CC(C)Cn1nc(C(=O)N[C@@H](CCN2CCCC(F)(F)C2)CC(=O)O)cc1-c1ccccc1C(F)(F)F [compound 565, (3S)-5-(3,3-difluoropiperidin-1-yl)-3-{[1-(2-methylpropyl)-5-[2-(trifluoromethyl)phenyl]-1H-pyrazol-3-yl]formamido}pentanoic acid] | 544
COc1cccc(OC)c1-c1cc(C(=O)N[C@@H](CCN2CCCCC2)CC(=O)N(C)C2CCC2)nn1C1CCCC1 [compound 331, (3S)-N-cyclobutyl-3-{[1-cyclopentyl-5-(2,6-dimethoxyphenyl)-1H-pyrazol-3-yl]formamido}-N-methyl-5-(piperidin-1-yl)pentanamide] | 353
Cc1noc(C)c1-c1cc(C(=O)N[C@@H](CCN2CCCCC2)CC(=O)NC2CCC2)nn1C1CCCC1 [compound 369, (3S)-N-cyclobu tyl-3-{[1-cyclopentyl-5-(dimethyl-1,2-oxazol-4-yl)-1H-pyrazol-3-yl]formamido}-5-(piperidin-1-yl)pentanamide] | > 10000
O=C(C[C@H](CCN1CCCCC1)NC(=O)c1cc(-c2ccc(F)cc2OCC(F)(F)F)n(C2CCCC2)n1)NC1CCC1 [compound 366, (3S)-N-cyclobutyl-3-({1-cyclopentyl-5[4-fluoro-2-(2,2,2-trifluoroethoxy)phenyl]-1H-pyrazol-3-yl]formamido)-5-(piperidin-1-yl)pentanamide] | > 10000
CC(C)[C@H](NC(=O)c1cc(-c2ccccc2C(F)(F)F)n(C2CCCC2)n1)C(=O)O [compound 528, (2S)-2-({1-cyclopentyl-5-[2-(trifluoromethyl)phenyl]-1H-pyrazol-3-yl}formamido)-3-methylbutanoic acid] | > 10000

Next, values leading:

EC50 [nM] | Structure (SMILES)
264 | CCc1cc(F)ccc1-c1cc(C(=O)N[C@@H](CCN2CCCCC2)CC(=O)NC2CCC2)nn1C1CCCC1 [compound 399, (3S)-N-cyclobutyl-3-{[1-cyclopentyl-5-(2-ethyl-4-fluorophenyl)-1H-pyrazol-3-yl]formamido}-5-(piperidin-1-yl)pentanamide]
49 | O=C(C[C@H](CCN1CCCCC1)NC(=O)c1cc(-c2ccccc2C2CC2)n(C2CCCC2)n1)NC1CCC1 [compound 413, (3S)-N-cyclobutyl-3-{[1-cyclopentyl-5-(2-cyclopropylphenyl)-1H-pyrazol-3-yl]formamido}-5-(piperidin-1-yl)pentanamide]
1160 | O=C(O)C[C@H](CCN1CC[C@@H](F)C1)NC(=O)c1cc(-c2ccccc2C(F)(F)F)n(C2CCCC2)n1 [compound 590, (3S)-3-({1-cyclopentyl-5-[2-(trifluoromethyl)phenyl]-1H-pyrazol-3-yl]formamido)-5-[(3R)-3-fluoropyrrolidin-1-yl]pentanoic acid]
167 | O=C(O)C[C@H](CCN1CCCC(F)(F)C1)NC(=O)c1cc(-c2ccccc2C(F)(F)F)n(C2CCC2)n1 [compound 552, (3S)-3-({1-cyclobutyl-5-[2-(trifluoromethyl)phenyl]-1H-pyrazol-3-yl}formamido)-5-(3,3-difluoropiperidin-1-yl)pentanoic acid]
641 | O=C(C[C@H](CCN1CCCCC1)NC(=O)c1cc(-c2ccsc2C(F)(F)F)n(C2CCCC2)n1)NC1CCC1 [compound 434]
920 | O=C(C[C@H](CCN1CCC(F)(F)CC1)NC(=O)c1cc(-c2ccccc2C(F)(F)F)n(C2CCCC2)n1)NCc1ccccc1 [compound 439, (3S)-N-benzyl-3-({1-cyclopentyl-5-[2-(trifluoromethyl)phenyl]-1H-pyrazol-3-yl}formamido)-5-(4,4-difluoropiperidin-1-yl)pentanamide]
34 | O=C(C[C@H](CCN1CCCCCC1)NC(=O)c1cc(-c2ccccc2C(F)(F)F)n(C2CCCC2)n1)NC1CCC1 [compound 505, (3S)-5-(azepan-1-yl)-N-cyclobutyl-3-({1-cyclopentyl-5-[2(trifluoromethyl)phenyl]-1H-pyrazol-3-yl}formamido)pentanamide]
191 | NNC(=O)C[C@H](CCN1CCCC(F)(F)C1)NC(=O)c1cc(-c2ccccc2Cl)n(C2CCCC2)n1 [compound 465, 5-(2-chlorophenyl)-1-cyclopentyl-N-[(2S)-4-(3,3-difluoropiperidin-1-yl)-1-(hydrazinecarbonyl)butan-2-yl]-1H-pyrazole-3-carboxamide]
231 | CC1(C)CC(F)(F)CN1CC[C@@H](CC(=O)O)NC(=O)c1cc(-c2ccccc2C(F)(F)F)n(C2CCCC2)n1 [compound 612, (3S)-3-({1-cyclopentyl-5-[2-(trifluoromethyl)phenyl]-1H-pyrazol-3-yl}formamido)-5-(4,4-difluoro-2,2-dimethylpyrrolidin-1-yl)pentanoic acid]
234 | COc1ccccc1-c1cc(C(=O)N[C@@H](CCN2CCCCC2)CC(=O)NC2CCC2)nn1C1CCCC1 [compound 361, (3S)-N-cyclobutyl-3-{[1-cyclopentyl-5-(2-methoxyphenyl)-1H-pyrazol-3-yl]formamido}-5-(piperidin-1-yl)pentanamide]
> 10000 | O=C(C[C@H](CCN1CCCCC1)NC(=O)c1cc(-c2ccccc2)n(C2CCCC2)n1)NC1CCC1 [compound 365, (3S)-N-cyclobutyl-3-[(1-cyclopentyl-5-phenyl-1H-pyrazol-3-yl)formamido]-5-(piperidin-1-yl)pentanamide]
